Here are results for one compound from patent EP4483954A1 (Masarykova Univerzita, priority 2023, dated 2025).

Holding throughout (type): biochemical
The target in one test is T1, TAF1L(h) (Homo sapiens, UniProt Q8IZX4).
T1 construct: purchased Eurofins (KinaseProfiler)
Description: radiometric kinase assay (KinaseProfiler, Eurofins), TAF1L. Particulars: in vitro radiometric kinase assay, tested at 1 nM to 10 000 nM, no pre-incubation; read-out: inhibitory activities (IC50 values) TAF1L.

The next test addresses T2, CDKL3(h) (Homo sapiens, UniProt Q8IVW4).
T2 construct: purchased Eurofins (KinaseProfiler)
Description: radiometric kinase assay (KinaseProfiler, Eurofins), CDKL3. The settings on record: in vitro radiometric kinase assay, tested at 1 nM to 10 000 nM, no pre-incubation; read-out: inhibitory activities (IC50 values) CDKL3.

For another test, the target named is T3, DYRK2 (h) (Homo sapiens, UniProt Q92630).
T3 construct: purchased Eurofins (KinaseProfiler)
T3 sequence (Q92630 1-601): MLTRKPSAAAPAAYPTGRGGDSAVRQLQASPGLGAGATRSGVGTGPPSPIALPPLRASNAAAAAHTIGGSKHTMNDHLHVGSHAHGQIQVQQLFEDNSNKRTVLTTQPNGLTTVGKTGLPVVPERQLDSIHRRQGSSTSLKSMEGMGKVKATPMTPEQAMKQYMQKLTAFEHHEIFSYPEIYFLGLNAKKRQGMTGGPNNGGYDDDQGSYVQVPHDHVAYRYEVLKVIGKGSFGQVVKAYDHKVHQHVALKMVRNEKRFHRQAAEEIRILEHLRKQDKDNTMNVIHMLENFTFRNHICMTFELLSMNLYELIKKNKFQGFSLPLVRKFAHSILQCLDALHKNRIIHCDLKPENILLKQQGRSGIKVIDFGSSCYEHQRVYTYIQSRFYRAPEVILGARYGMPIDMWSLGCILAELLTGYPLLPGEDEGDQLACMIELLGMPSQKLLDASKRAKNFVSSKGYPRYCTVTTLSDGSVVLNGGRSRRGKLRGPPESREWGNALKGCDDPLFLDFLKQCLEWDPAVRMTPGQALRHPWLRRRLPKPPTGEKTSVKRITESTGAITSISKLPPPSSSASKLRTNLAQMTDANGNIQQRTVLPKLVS
The test is described as follows: radiometric kinase assay (KinaseProfiler, Eurofins), DYRK2. The settings on record: in vitro radiometric kinase assay, tested at 1 nM to 10 000 nM, no pre-incubation; read-out: inhibitory activities (IC50 values) DYRK2. The essentials:
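Radiometric filter-binding assay with human DYRK2, 2 mg/mL casein substrate, 8 mM MOPS pH 7.0, 10 mM Mg acetate, γ-33P-ATP; no compound pre-incubation. Reaction 40 min at room temperature, stopped with phosphoric acid, scintillation counted. Nine concentrations, 1–10 000 nM; % activity vs DMSO fitted for IC50.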

A further test has as its target T4, TRB2(h) (Homo sapiens, UniProt Q92519).
T4 construct: purchased Eurofins (KinaseProfiler)
T4 sequence (Q92519 1-343): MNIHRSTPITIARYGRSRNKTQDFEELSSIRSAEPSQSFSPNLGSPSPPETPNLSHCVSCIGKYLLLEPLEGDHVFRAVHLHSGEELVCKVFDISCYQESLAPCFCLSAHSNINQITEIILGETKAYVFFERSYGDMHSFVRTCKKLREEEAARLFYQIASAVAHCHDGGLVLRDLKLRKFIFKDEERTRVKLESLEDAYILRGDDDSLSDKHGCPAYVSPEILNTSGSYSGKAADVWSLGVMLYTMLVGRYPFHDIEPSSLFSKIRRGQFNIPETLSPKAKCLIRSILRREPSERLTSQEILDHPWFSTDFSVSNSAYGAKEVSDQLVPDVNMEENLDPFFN
The test is described as follows: radiometric kinase assay (KinaseProfiler, Eurofins), TRB2. Particulars: in vitro radiometric kinase assay, tested at 1 nM to 10 000 nM, no pre-incubation; read-out: inhibitory activities (IC50 values) TRB2.

The structures appear in SMILES notation.

T1 sequence (Q8IZX4 whole entry): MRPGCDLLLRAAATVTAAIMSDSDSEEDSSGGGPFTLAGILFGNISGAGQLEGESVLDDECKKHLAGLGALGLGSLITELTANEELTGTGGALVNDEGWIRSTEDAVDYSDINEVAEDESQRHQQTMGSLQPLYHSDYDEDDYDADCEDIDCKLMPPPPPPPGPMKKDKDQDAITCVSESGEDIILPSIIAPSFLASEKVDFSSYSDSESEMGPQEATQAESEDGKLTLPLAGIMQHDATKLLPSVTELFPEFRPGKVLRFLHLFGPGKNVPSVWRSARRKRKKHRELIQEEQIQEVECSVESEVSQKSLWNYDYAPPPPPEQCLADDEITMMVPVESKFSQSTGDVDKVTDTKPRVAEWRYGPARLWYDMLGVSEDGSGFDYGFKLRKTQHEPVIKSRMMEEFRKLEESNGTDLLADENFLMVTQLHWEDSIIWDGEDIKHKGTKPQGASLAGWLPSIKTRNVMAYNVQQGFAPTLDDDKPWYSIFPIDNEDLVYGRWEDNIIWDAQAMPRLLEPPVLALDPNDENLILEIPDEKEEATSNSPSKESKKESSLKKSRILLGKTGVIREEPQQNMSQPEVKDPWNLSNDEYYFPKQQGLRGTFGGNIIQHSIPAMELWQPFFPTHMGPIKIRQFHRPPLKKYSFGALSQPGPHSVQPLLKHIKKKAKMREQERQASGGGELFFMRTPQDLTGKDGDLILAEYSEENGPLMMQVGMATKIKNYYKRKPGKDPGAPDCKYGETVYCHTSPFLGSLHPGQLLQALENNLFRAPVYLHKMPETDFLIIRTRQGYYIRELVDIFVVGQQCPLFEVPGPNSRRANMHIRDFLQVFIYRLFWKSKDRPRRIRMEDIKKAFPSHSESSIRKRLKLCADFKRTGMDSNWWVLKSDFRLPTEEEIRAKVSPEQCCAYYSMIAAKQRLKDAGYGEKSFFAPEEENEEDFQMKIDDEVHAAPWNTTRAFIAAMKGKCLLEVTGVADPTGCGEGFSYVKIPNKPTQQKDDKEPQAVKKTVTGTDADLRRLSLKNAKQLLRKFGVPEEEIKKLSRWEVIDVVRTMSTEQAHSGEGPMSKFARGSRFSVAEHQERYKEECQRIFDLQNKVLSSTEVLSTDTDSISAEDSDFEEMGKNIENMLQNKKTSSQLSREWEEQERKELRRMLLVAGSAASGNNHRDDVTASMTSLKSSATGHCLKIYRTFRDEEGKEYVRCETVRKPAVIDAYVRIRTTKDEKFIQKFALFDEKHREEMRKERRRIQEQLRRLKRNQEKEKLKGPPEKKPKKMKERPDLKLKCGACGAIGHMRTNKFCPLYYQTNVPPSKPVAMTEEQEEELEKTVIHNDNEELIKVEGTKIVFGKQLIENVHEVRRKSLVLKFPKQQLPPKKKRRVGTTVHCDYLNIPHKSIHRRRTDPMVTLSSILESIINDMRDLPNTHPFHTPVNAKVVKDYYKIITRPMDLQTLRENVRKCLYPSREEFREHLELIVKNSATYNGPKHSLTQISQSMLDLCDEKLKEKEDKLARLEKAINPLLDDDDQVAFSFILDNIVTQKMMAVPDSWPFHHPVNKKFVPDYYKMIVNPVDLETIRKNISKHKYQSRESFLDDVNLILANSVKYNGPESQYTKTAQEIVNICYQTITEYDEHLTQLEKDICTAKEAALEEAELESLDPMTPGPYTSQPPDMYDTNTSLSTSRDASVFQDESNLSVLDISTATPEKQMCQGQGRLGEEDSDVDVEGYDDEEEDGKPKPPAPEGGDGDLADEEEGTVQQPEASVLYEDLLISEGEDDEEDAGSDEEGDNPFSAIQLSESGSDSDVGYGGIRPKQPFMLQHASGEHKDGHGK
T2 sequence (Q8IVW4 whole entry): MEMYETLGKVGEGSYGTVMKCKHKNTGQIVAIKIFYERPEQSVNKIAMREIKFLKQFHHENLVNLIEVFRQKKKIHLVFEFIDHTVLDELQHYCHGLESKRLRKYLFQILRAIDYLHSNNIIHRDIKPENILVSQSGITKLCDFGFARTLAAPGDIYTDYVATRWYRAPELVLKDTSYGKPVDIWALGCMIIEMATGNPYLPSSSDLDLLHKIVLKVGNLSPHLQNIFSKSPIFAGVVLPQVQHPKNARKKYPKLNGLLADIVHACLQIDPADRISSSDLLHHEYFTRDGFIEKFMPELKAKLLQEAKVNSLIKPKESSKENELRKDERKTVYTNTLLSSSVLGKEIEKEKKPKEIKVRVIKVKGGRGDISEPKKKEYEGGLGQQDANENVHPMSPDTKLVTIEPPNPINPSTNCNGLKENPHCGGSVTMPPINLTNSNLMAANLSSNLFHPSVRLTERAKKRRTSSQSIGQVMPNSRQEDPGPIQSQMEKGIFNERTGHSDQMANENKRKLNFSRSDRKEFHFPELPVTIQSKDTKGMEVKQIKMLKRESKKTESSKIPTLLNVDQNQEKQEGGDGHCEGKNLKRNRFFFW

As for `COc1cc(-c2ccn(C)n2)nc2c(-c3ccncc3)csc12` [Preparative Example 165, 7-methoxy-5-(1-methyl-1H-pyrazol-3-yl)-3-(pyridin-4-yl)thieno[3,2-b]pyridine], the IC50 on TAF1L(h) was in the range of 500 to 3000 nM; on CDKL3(h) it was 500 to 3000 nM; at DYRK2 (h), 3000 to 10000 nM; at TRB2(h), 500 to 3000 nM.

Broadly, the IC50 is the concentration that gives 50% inhibition.
